Measurements reported in ChEMBL document CHEMBL1152560, “Substituted 2-arylbenzothiazoles as kinase inhibitors: hit-to-lead optimization” (Bioorg Med Chem, 2009).

Columns and labels:
[1] = tested on: Mast/stem cell growth factor receptor Kit (Homo sapiens), P10721 [T670I]; test: Residual activity of KIT T670I mutant at 1 uM by microplate scintillation counting
[2] = target: G protein-coupled receptor kinase 6 (Homo sapiens) (UniProt P43250); test: Residual activity of GRK6 at 0.1 uM by microplate scintillation counting
Sequence of G protein-coupled receptor kinase 6 (Homo sapiens) (P43250 whole entry, looked up): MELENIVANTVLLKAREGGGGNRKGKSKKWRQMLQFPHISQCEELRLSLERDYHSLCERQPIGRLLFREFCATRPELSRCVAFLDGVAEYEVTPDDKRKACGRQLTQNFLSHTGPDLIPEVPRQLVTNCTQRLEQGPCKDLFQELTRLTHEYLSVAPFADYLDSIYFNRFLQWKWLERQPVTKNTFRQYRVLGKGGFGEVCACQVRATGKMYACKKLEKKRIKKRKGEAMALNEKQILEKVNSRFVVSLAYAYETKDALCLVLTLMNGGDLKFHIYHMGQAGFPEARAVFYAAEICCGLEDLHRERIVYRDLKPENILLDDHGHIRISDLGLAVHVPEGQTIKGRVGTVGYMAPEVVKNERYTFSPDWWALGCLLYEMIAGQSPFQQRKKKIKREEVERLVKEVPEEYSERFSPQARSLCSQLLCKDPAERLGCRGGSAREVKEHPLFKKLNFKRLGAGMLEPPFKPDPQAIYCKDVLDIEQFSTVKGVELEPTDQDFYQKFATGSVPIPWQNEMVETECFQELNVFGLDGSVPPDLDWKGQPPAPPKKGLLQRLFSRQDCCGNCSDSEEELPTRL

[3] = target: T1, Ephrin type-B receptor 1 (Homo sapiens) (UniProt P54762); test: Residual activity of EPHB1 at 0.1 uM by microplate scintillation counting
T1 sequence (whole entry): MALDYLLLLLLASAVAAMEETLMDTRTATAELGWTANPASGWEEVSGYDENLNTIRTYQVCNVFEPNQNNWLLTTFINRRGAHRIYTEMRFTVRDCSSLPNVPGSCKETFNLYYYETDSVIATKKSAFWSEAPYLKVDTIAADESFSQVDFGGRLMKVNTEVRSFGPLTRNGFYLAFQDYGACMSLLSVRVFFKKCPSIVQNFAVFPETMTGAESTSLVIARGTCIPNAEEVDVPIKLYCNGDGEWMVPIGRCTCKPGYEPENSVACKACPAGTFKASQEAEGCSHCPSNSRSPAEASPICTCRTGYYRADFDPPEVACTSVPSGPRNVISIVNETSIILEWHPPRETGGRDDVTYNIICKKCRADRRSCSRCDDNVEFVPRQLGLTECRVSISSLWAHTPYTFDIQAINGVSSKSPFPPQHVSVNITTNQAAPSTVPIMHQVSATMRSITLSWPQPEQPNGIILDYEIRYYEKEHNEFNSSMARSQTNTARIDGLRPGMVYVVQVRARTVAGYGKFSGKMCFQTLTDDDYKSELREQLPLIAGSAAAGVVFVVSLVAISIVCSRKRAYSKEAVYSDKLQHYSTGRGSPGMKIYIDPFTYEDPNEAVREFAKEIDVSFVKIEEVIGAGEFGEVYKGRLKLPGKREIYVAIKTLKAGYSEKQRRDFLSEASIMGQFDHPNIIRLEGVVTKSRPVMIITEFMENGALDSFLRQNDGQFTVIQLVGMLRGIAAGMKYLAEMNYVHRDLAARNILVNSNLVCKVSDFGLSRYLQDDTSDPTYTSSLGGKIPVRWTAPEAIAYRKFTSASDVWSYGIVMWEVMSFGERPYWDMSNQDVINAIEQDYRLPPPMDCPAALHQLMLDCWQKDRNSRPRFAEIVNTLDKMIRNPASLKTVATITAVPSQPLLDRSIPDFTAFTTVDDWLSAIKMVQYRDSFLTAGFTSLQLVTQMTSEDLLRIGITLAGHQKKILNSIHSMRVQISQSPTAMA

[4] = target: Activin receptor type-1-like (Homo sapiens) (UniProt P37023); test: Residual activity of ACV-RL1 at 1 uM by microplate scintillation counting
Sequence of Activin receptor type-1-like (Homo sapiens) (P37023 whole entry): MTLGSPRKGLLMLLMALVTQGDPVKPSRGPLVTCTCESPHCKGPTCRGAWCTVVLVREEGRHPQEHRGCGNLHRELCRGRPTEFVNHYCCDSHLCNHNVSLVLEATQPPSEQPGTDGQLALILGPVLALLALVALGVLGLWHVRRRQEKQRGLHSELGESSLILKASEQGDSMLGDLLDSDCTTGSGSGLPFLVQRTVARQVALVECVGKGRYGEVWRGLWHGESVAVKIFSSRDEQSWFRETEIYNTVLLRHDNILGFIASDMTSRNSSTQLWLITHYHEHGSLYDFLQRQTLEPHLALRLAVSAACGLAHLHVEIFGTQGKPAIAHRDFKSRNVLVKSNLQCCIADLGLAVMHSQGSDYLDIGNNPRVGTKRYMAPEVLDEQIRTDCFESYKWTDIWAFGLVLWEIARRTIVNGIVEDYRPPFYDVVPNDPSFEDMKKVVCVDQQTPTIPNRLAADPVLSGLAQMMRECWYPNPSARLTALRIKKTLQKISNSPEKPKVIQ

[5] = target: RAC-beta serine/threonine-protein kinase (Homo sapiens) (UniProt P31751); test: Residual activity of AKT2 at 1 uM by microplate scintillation counting
Sequence of RAC-beta serine/threonine-protein kinase (Homo sapiens) (P31751 whole entry): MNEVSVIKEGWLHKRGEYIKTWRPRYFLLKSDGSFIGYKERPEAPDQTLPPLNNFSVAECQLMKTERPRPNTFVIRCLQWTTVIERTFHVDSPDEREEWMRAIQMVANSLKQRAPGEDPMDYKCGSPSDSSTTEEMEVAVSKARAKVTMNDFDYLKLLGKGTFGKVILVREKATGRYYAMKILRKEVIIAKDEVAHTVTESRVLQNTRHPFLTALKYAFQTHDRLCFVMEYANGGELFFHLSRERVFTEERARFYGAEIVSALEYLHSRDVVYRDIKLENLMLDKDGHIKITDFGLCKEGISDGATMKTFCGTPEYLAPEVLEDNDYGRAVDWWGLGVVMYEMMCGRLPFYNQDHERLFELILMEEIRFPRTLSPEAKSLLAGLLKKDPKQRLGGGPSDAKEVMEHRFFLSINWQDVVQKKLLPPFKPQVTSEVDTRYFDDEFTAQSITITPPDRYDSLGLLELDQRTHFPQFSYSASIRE

[6] = target: T2, Tyrosine-protein kinase ZAP-70 (Homo sapiens) (UniProt P43403); test: Residual activity of ZAP70 at 10 uM by microplate scintillation counting
T2 sequence (whole entry): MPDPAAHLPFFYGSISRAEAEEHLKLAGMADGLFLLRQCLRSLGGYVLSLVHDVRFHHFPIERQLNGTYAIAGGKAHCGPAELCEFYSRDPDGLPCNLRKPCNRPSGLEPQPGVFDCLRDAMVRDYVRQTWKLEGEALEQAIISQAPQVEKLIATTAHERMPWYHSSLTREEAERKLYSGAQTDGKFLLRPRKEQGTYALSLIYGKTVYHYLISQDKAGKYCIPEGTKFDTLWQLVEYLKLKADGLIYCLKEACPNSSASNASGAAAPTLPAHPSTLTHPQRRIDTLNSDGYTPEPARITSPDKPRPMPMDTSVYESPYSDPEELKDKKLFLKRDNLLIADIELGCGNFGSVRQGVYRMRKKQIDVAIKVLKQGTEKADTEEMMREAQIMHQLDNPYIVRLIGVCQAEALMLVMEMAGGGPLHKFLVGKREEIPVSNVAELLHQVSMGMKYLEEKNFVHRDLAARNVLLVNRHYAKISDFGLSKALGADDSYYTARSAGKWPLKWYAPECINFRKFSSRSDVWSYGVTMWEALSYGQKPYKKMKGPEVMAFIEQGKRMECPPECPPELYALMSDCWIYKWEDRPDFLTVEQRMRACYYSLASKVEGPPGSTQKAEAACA

[7] = target: 5'-AMP-activated protein kinase catalytic subunit alpha-1 (Homo sapiens) (UniProt Q13131); test: Residual activity of AMPK-alpha1 fl at 1 uM by microplate scintillation counting
Sequence of 5'-AMP-activated protein kinase catalytic subunit alpha-1 (Homo sapiens) (Q13131 whole entry, looked up): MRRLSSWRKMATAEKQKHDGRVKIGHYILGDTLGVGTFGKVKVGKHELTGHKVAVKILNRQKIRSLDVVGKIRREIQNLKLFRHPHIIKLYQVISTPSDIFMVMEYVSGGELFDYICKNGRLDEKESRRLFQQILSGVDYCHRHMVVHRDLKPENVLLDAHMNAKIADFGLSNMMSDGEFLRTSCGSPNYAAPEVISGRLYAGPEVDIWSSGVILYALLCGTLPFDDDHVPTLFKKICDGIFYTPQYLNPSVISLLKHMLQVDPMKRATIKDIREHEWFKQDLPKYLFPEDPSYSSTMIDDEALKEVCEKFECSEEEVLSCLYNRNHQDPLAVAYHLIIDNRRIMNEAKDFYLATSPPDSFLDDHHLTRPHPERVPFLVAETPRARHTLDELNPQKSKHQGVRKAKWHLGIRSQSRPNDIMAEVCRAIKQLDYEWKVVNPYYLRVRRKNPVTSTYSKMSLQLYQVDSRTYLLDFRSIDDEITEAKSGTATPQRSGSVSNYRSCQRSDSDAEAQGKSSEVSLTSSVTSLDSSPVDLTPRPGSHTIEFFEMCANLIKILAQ

[8] = Residual activity of PKA at 0.1 uM by microplate scintillation counting
[9] = target: Serine/threonine-protein kinase 26 (Homo sapiens) (UniProt Q9P289); test: Residual activity of MST4 at 10 uM by microplate scintillation counting
Sequence of Serine/threonine-protein kinase 26 (Homo sapiens) (Q9P289 2-416 limits assumed): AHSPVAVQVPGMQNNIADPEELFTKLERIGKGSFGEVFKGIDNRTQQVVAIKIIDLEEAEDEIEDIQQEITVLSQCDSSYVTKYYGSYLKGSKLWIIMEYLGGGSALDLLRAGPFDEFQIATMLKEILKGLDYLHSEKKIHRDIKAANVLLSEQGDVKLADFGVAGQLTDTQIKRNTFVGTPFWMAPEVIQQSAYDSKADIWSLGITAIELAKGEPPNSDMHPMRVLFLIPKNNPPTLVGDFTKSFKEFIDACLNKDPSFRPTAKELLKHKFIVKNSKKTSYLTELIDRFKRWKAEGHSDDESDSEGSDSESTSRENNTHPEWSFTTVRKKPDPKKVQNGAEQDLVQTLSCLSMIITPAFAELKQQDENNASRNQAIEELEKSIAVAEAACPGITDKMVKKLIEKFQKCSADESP

[10] = target: T3, MAP kinase-activated protein kinase 5 (Homo sapiens) (UniProt Q8IW41); test: Residual activity of MAPKAPK5 at 1 uM by microplate scintillation counting
T3 sequence (whole entry): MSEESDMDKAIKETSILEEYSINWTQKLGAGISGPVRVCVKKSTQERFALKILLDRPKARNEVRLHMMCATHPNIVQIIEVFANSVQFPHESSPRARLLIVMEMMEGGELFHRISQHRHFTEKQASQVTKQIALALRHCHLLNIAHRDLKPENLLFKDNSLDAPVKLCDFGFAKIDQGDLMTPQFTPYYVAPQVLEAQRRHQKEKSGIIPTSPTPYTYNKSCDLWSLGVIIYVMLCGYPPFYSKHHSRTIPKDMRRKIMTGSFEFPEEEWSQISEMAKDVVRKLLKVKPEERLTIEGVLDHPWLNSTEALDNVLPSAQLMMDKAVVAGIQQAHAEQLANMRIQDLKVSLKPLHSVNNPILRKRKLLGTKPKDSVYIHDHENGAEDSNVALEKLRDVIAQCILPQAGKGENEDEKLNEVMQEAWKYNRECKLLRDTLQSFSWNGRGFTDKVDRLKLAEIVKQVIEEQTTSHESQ

[11] = target: Ribosomal protein S6 kinase beta-2 (Homo sapiens) (UniProt Q9UBS0); test: Residual activity of S6Kbeta at 10 uM by microplate scintillation counting
Sequence of Ribosomal protein S6 kinase beta-2 (Homo sapiens) (Q9UBS0 whole entry): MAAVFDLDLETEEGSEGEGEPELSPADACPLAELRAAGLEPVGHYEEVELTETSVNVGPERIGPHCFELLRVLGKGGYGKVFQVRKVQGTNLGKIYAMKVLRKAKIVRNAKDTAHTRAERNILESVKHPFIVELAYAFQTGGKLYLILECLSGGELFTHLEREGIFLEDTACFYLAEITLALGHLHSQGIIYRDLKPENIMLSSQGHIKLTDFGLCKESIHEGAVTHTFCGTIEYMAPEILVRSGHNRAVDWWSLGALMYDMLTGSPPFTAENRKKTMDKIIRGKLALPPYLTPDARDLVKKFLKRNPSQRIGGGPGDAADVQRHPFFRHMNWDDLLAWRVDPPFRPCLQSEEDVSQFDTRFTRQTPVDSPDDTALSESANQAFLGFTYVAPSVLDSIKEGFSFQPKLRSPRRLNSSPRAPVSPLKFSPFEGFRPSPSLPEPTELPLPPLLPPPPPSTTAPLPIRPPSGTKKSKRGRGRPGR

Sequence of Mast/stem cell growth factor receptor Kit (Homo sapiens), P10721 [T670I] (P10721 whole entry T670I): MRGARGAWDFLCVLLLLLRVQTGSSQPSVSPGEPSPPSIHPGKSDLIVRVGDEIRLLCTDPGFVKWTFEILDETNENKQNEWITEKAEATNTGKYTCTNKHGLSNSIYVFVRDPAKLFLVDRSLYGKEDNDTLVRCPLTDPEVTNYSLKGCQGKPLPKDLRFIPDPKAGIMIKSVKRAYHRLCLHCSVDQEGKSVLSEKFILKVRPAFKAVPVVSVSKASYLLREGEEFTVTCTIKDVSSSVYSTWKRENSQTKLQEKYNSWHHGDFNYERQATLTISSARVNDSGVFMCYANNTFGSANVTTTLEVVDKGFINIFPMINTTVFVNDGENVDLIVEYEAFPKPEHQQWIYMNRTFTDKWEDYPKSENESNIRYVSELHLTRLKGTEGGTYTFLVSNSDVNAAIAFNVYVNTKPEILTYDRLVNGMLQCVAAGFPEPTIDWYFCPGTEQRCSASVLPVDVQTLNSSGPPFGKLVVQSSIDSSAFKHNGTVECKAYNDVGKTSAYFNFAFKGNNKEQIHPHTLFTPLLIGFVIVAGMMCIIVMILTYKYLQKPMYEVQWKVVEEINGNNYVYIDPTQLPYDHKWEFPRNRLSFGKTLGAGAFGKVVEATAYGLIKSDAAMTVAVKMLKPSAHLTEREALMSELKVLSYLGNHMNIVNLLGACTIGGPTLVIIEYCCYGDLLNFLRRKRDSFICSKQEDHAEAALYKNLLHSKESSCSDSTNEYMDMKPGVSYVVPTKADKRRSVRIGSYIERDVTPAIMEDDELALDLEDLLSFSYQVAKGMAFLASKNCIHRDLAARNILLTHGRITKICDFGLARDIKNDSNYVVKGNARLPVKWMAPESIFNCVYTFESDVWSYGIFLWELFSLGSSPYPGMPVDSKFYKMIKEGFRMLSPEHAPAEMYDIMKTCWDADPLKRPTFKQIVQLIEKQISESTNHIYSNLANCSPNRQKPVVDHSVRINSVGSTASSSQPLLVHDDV

COc1cc2c(Oc3ccc(-c4nc5ccccc5s4)cc3)ncnc2cc1OCCCN1CCN(C)CC1
residual activity [1]: 73%
residual activity [2]: 79%
residual activity [3]: 118%
residual activity [4]: 78%
residual activity [5]: 83%
residual activity [6]: 341%
residual activity [7]: 76%
residual activity [8]: 89%
residual activity [9]: 88%
residual activity [10]: 107%
residual activity [11]: 75%

COc1cc2c(Oc3ccc(-c4nc5ccccc5s4)cc3)ncnc2cc1OCCCN1CCCC1
residual activity [1]: 73%
residual activity [2]: 88%
residual activity [3]: 99%
residual activity [4]: 92%
residual activity [5]: 91%
residual activity [6]: 166%
residual activity [7]: 91%
residual activity [8]: 95%
residual activity [9]: 85%
residual activity [10]: 90%
residual activity [11]: 85%

COc1cc2c(Oc3ccc(-c4nc5ccccc5s4)cc3F)ncnc2cc1OCCCN1CCN(C)CC1
residual activity [1]: 65%
residual activity [2]: 88%
residual activity [3]: 123%
residual activity [4]: 92%
residual activity [5]: 113%
residual activity [6]: 230%
residual activity [7]: 77%
residual activity [8]: 98%
residual activity [9]: 76%
residual activity [10]: 90%
residual activity [11]: 77%
